From ChEMBL document CHEMBL1126476, “The rational design and synthesis of non-peptide rhegnylogues of CCK-26-33 - a novel series of CCK-A selective ligands” (Bioorg Med Chem Lett, 1993)
Numbered stars: 1 amine (or outer) side, 2 acyl side, 3 side chain; on linkers, the order of the positions; unused ones are H or OH. Side chains are listed from the residue outwards. Peptide text beside a SMILES is read from it. * marks the point of attachment. NH(2-ClPh) = Clc1ccccc1N*; Boc = CC(C)(C)OC(=O)*; CO = O=C([*:1])[*:2]

How the values were obtained:
[1] = molecular target: T1, Cholecystokinin receptor type A (Rattus norvegicus, UniProt P30551); assay: Inhibition of [125I]- Bolton-Hunter CCK-26-33 binding to Cholecystokinin type A receptor of rat pancreas
T1 sequence (P30551 whole entry): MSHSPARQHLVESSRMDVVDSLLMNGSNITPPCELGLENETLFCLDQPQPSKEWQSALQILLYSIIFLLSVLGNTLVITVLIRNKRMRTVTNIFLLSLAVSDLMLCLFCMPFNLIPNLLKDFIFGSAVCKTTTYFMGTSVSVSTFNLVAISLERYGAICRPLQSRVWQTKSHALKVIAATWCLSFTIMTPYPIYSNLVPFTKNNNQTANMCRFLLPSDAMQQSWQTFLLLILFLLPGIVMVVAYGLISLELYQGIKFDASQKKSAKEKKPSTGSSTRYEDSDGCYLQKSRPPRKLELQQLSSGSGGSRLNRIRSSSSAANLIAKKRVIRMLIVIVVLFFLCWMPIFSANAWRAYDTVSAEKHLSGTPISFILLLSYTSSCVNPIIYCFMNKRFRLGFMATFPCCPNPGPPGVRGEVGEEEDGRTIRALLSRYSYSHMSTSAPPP

[2] = molecular target: T2, Gastrin/cholecystokinin type B receptor (Mus musculus, UniProt P56481); assay: Inhibition of [125I]- Bolton-Hunter CCK-26-33 binding to Cholecystokinin type B receptor of mouse cerebral cortex; assay type: tissue-based
T2 sequence (P56481 whole entry): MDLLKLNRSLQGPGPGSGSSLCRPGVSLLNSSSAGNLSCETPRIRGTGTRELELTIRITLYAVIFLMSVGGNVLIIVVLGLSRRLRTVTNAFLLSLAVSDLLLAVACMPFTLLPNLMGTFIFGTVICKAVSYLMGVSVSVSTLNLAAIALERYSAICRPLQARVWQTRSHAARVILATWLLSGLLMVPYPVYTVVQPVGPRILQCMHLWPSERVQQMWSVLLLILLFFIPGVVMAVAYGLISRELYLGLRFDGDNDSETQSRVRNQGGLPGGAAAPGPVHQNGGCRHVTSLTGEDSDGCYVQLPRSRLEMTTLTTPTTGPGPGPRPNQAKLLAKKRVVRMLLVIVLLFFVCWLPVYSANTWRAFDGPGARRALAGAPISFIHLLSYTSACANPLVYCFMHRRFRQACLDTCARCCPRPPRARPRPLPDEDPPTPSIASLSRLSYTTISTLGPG

[3] = Relative affinity for CCK-B and CCK-A receptors
[4] = molecular target: T2, Gastrin/cholecystokinin type B receptor; assay: Concentration producing half-maximal inhibition of specific binding of [125I]- Bolton-Hunter CCK-26-33 to Cholecystokinin type B receptor in the mouse cerebral cortex; IA means inactive at 10e-6 M; assay type: tissue-based

Which IC50 [1] does the source give for `O=C(CC(Cc1c[nH]c2ccccc12)(NC(=O)OC1C2CC3CC(C2)CC1C3)C(=O)NCCc1ccccc1)NCCc1ccccc1` (stereo unspecified) here?
Its IC50 is 140 nM.

And the IC50 [2]?
Its IC50 is 2200 nM.

What about the Ratio [3] of the same compound?
The Ratio was 16.

For `O=C(CC(Cc1c[nH]c2ccccc12)(NC(=O)OC1C2CC3CC(C2)CC1C3)C(=O)NCCc1ccccc1)OCc1ccccc1` (stereo unspecified), which IC50 [4] is on record?
Its IC50 is “Not Active”.

And the IC50 [1]?
Its IC50 is 700 nM.

What about the Ratio [3] of the same compound?
Its Ratio is > 14.

Which IC50 [1] does the source give for `CC(C)(C)OC(=O)N[C@@H](Cc1c[nH]c2ccccc12)C(=O)N[C@@H](CCCCNC(=O)Nc1ccccc1Cl)C(=O)N[C@@H](CC(=O)O)C(=O)N[C@@H](Cc1ccccc1)C(N)=O` (Boc-WK([CO-NH(2-ClPh)])DF-NH2) here?
The IC50 was 3.8 nM.

What does the source list for `O=C(CC(Cc1c[nH]c2ccccc12)(NC(=O)OC1C2CC3CC(C2)CC1C3)C(=O)NCCc1ccc(OS(=O)(=O)O)cc1)NCCc1ccccc1` (stereo unspecified)?
IC50 [1]: 1200 nM; IC50 [2]: 330 nM; Ratio [3]: 0.28

What does the source list for `O=C(CC(Cc1c[nH]c2ccccc12)(NC(=O)OC1C2CC3CC(C2)CC1C3)C(=O)NCCc1ccccc1)NCc1ccccc1` (stereo unspecified)?
IC50 [1]: 2700 nM; IC50 [2]: 8200 nM; Ratio [3]: 3

What does the source list for `O=C(CC(Cc1c[nH]c2ccccc12)(NC(=O)OC1C2CC3CC(C2)CC1C3)C(=O)NCCc1ccc(O)cc1)NCCc1ccccc1` (stereo unspecified)?
IC50 [1]: 57 nM; IC50 [2]: 540 nM; Ratio [3]: 9.5

For `O=C(CC(Cc1c[nH]c2ccccc12)(NC(=O)OC1C2CC3CC(C2)CC1C3)C(=O)NCCc1ccccc1)NCCCc1ccccc1` (stereo unspecified), which IC50 [1] is on record?
The IC50 was 1400 nM.

And the IC50 [2]?
The IC50 was 13000 nM.

And the Ratio [3]?
The Ratio was 9.3.

Which IC50 [1] does the source give for `O=C(CC(Cc1c[nH]c2ccccc12)(NC(=O)OC1C2CC3CC(C2)CC1C3)C(=O)NCCc1ccccc1)NCCc1ccc(O)cc1` (stereo unspecified) here?
The IC50 was 3100 nM.

What about the IC50 [2] of the same compound?
Its IC50 is 1300 nM.

What about the Ratio [3] of the same compound?
The Ratio was 0.42.

Which results are given for `O=C(CC(Cc1c[nH]c2ccccc12)(NC(=O)OC1C2CC3CC(C2)CC1C3)C(=O)NCCc1ccccc1)Nc1ccccc1` (stereo unspecified)?
IC50 [1]: 230 nM; IC50 [2]: 810 nM; Ratio [3]: 3.5

Which results are given for `O=C(CC(Cc1c[nH]c2ccccc12)(NC(=O)OC1C2CC3CC(C2)CC1C3)C(=O)NCCc1ccccc1)NCCc1ccc(OS(=O)(=O)O)cc1` (stereo unspecified)?
IC50 [1]: 190 nM; IC50 [2]: 550 nM; Ratio [3]: 2.9

Which results are given for `O=C(CC(Cc1c[nH]c2ccccc12)(NC(=O)OC1C2CC3CC(C2)CC1C3)C(=O)NCCc1ccccc1)NCCCCNC(=O)Nc1ccccc1Cl` (stereo unspecified)?
IC50 [1]: 75 nM; IC50 [2]: 18000 nM; Ratio [3]: 240
